# Assay results: paper PMC7206119, “RIP1 inhibition blocks inflammatory diseases but not tumor growth or metastases” (Cell Death and Differentiation, 2019)
# Legend:
# Test in all cases: biochemical
# Set-up in all cases: DiscoverX kinase panel, active-site competition binding (KINOMEscan type), percent of control at one concentration
# Conditions in all cases: competition binding, percent of control
# [1] = target: BTK (Homo sapiens, UniProt Q06187)
# [2] = target: T1, MLCK (Homo sapiens, UniProt Q32MK0)
# T1 construct: gene MYLK3
# [3] = target: HIPK2 (Homo sapiens, UniProt Q9H2X6)
# [4] = target: PKN2 (Homo sapiens, UniProt Q16513)
# [5] = target: T2, ABL1-nonphosphorylated (Homo sapiens, UniProt P00519)
# T2 construct: nonphosphorylated
# [6] = target: ANKK1 (Homo sapiens, UniProt Q8NFD2)
# [7] = target: CDK3 (Homo sapiens, UniProt Q00526)
# [8] = target: EPHA5 (Homo sapiens, UniProt P54756)
# [9] = target: WEE1 (Homo sapiens, UniProt P30291)
# [10] = target: CDKL5 (Homo sapiens, UniProt O76039)
# [11] = target: PIK3CA(E542K) (Homo sapiens, UniProt P42336, E542K)
# [12] = target: PHKG1 (Homo sapiens, UniProt Q16816)
# [13] = target: MAP3K3 (Homo sapiens, UniProt Q99759)
# [14] = target: WNK4 (Homo sapiens, UniProt Q96J92)
# [15] = target: FLT3(ITD,D835V) (Homo sapiens, UniProt P36888, D835V/ITD)
# [16] = target: PRKCD (Homo sapiens, UniProt Q05655)
# [17] = target: CLK1 (Homo sapiens, UniProt P49759)
# [18] = target: T3, PIP5K2B (Homo sapiens, UniProt P78356)
# T3 construct: gene PIP4K2B
# [19] = target: EGFR(G719C) (Homo sapiens, UniProt P00533, G719C)
# [20] = target: FLT3(ITD) (Homo sapiens, UniProt P36888, ITD)
# [21] = target: NEK1 (Homo sapiens, UniProt Q96PY6)
# WEE1, sequence (P30291 whole entry): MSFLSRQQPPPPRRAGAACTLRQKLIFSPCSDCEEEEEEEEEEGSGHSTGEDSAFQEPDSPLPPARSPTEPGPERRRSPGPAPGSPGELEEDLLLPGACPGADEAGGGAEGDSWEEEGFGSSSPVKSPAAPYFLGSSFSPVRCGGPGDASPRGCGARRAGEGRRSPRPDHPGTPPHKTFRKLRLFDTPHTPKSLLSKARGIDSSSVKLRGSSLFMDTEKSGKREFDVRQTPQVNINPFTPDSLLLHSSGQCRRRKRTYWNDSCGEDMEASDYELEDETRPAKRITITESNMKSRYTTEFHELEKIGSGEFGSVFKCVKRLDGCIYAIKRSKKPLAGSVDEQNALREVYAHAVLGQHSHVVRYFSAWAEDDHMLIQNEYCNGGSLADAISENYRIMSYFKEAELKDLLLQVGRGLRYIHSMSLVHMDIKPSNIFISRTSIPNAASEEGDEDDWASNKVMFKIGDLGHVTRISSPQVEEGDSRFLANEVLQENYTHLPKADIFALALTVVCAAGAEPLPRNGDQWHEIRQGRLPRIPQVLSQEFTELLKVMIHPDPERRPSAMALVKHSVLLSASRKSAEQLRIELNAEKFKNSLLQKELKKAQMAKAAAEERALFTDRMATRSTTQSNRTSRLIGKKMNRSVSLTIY
# PHKG1, sequence (Q16816 whole entry): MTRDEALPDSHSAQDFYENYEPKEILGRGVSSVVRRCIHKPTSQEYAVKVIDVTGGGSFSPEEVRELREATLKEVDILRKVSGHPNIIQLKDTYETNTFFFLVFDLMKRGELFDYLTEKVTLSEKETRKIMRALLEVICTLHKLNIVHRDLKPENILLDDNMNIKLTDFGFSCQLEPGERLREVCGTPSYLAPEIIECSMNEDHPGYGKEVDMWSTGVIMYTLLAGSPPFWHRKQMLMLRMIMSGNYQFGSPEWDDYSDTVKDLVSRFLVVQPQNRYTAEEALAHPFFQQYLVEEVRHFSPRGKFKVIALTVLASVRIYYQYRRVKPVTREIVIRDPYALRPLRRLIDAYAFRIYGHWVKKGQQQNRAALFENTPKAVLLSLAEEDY
# BTK, sequence (Q06187 whole entry): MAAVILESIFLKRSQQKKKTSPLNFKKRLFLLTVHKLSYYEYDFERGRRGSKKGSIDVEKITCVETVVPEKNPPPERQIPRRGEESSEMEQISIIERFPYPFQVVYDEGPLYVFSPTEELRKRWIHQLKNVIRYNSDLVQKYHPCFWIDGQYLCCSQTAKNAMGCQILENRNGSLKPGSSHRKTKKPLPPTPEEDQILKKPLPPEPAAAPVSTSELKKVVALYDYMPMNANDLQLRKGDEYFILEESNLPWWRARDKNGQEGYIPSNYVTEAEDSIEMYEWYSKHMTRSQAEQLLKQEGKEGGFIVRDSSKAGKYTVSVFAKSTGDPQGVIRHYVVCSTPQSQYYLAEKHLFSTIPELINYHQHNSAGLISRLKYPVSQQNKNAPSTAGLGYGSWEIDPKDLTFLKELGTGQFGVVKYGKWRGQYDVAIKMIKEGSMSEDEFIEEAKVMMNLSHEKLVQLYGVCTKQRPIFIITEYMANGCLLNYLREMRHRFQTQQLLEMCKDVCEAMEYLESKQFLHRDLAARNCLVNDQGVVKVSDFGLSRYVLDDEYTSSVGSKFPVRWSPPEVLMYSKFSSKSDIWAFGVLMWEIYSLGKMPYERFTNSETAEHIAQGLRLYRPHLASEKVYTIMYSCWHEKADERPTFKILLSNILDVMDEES
# T2 sequence (P00519 whole entry): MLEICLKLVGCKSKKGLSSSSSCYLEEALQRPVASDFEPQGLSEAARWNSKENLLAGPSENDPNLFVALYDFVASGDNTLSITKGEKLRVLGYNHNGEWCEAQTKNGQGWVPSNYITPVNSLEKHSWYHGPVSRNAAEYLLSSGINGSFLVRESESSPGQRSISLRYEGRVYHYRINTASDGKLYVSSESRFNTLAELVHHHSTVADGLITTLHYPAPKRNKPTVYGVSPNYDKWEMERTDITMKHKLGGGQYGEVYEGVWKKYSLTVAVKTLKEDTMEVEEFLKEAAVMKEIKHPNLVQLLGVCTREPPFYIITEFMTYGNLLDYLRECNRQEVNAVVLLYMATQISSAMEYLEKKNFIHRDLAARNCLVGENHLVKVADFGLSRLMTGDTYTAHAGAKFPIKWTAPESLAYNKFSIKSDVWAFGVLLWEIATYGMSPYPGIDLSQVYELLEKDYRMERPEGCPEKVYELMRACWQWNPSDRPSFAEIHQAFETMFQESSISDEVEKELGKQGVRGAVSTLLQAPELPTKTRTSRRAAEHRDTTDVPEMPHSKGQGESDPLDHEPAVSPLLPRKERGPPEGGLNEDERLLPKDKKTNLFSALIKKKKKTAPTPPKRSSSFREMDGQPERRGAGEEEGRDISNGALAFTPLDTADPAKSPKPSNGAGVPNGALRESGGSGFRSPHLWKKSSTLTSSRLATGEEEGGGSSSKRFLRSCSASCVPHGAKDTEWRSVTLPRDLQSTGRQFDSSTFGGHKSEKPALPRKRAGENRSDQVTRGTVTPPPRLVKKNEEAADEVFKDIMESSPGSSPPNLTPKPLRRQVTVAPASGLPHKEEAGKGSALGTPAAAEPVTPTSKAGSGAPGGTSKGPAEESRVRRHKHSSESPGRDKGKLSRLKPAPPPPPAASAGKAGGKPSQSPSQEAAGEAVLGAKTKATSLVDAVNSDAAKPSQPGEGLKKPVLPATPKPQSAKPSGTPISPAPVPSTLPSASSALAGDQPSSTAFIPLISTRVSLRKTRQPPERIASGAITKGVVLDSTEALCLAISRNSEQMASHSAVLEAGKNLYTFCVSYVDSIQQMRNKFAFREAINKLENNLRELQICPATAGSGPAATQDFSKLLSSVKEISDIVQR
# CLK1, sequence (P49759 whole entry): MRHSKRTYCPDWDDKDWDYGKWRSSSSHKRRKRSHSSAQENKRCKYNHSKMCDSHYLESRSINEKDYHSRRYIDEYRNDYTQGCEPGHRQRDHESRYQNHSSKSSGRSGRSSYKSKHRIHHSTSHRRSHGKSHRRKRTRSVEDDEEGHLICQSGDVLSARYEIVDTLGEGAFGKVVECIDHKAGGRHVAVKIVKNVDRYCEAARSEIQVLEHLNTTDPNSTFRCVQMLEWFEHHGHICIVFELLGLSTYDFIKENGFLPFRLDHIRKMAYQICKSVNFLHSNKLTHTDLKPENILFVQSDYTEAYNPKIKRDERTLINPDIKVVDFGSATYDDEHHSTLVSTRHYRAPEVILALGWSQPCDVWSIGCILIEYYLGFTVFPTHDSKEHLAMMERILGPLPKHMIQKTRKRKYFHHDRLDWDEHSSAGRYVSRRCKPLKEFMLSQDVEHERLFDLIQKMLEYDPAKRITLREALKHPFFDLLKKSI
# PKN2, sequence (Q16513 whole entry): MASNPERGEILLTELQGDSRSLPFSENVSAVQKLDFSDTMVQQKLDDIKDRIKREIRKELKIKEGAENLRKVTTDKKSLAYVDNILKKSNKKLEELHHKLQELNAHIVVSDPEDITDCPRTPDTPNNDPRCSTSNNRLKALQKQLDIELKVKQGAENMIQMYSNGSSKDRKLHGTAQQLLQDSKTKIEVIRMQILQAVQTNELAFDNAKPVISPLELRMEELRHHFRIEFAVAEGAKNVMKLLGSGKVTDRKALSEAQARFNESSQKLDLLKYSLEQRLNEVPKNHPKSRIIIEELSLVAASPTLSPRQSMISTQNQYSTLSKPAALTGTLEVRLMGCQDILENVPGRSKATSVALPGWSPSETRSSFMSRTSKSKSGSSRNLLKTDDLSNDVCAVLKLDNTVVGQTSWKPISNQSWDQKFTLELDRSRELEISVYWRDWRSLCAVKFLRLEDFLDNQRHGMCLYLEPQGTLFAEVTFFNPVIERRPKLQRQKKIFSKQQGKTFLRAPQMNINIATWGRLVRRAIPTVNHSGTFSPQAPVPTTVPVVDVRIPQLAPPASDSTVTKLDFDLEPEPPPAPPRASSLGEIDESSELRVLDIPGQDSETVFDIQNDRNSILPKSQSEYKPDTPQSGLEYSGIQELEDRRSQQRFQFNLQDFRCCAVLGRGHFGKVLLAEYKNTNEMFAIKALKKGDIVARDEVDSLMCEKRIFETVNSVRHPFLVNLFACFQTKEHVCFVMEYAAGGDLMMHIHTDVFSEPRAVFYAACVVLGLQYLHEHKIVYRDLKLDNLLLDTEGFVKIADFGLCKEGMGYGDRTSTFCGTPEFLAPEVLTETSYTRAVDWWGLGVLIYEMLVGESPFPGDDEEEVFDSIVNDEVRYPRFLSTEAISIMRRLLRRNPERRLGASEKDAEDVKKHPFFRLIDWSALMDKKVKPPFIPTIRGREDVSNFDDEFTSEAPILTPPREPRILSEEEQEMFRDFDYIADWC
# ANKK1, sequence (Q8NFD2 whole entry): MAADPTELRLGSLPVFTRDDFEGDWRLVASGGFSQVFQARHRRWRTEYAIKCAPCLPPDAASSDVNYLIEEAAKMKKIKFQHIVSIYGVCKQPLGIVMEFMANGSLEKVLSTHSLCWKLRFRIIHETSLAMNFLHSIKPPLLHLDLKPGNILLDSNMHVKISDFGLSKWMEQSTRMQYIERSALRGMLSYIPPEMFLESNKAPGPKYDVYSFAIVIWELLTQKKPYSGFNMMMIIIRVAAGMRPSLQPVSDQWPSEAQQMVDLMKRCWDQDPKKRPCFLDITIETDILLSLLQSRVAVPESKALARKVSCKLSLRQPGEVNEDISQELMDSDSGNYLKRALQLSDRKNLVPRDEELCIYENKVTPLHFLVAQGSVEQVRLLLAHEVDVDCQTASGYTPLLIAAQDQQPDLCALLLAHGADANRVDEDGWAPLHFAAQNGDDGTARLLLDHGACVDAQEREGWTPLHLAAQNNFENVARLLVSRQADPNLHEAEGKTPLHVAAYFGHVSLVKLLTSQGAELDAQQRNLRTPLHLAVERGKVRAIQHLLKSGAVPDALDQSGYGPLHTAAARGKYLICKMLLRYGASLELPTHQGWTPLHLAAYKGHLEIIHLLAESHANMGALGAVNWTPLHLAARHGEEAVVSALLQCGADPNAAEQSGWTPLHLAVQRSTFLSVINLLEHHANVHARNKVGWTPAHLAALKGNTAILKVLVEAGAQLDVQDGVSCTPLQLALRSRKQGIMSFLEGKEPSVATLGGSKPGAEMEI
compound,measurement,setting,value
"COc1cc2c(cn1)N(C)C(=O)[C@@H](NC(=O)c1nc3n(n1)[C@H](c1ccccc1)CC3)CC2 [GNE684, (S)-N-((S)-7-methoxy-1-methyl-2-oxo-2,3,4,5-tetrahydro-1H-pyrido[3,4-b]azepin-3-yl)-5-phenyl-6,7-dihydro-5H-pyrrolo[1,2-b][1,2,4]triazole-2-carboxamide]",remaining binding at 10 µM,[1],100%
same,remaining binding at 10 µM,[2],66%
same,remaining binding at 10 µM,[3],82%
same,remaining binding at 10 µM,[4],84%
same,remaining binding at 10 µM,[5],67%
same,remaining binding at 10 µM,[6],98%
same,remaining binding at 10 µM,[7],74%
same,remaining binding at 10 µM,[8],100%
same,remaining binding at 10 µM,[9],69%
same,remaining binding at 10 µM,[10],79%
same,remaining binding at 10 µM,[11],41%
same,remaining binding at 10 µM,[12],77%
same,remaining binding at 10 µM,[13],98%
same,remaining binding at 10 µM,[14],100%
same,remaining binding at 10 µM,[15],84%
same,remaining binding at 10 µM,[16],86%
same,remaining binding at 10 µM,[17],90%
same,remaining binding at 10 µM,[18],92%
same,remaining binding at 10 µM,[19],87%
same,remaining binding at 10 µM,[20],100%
same,remaining binding at 10 µM,[21],100%
